This note sets out measurements from patent publication US20090123954A1, “MULTICOLOR BIOLUMINESCENT VISUALIZATION PROBE SET, OR SINGLE-MOLECULE-FORMAT MULTICOLOR BIOLUMINESCENT VISUALIZATION PROBE” (National Institute of Advanced Industrial Science and …, priority 2007, published 2009).

Read-outs that look alike come from different tables or passages of the source. Ends that are not written are not given here.

Test [1] has as its target T1, ER LBD (Homo sapiens, UniProt P03372).
T1 sequence (P03372 305-550) 1: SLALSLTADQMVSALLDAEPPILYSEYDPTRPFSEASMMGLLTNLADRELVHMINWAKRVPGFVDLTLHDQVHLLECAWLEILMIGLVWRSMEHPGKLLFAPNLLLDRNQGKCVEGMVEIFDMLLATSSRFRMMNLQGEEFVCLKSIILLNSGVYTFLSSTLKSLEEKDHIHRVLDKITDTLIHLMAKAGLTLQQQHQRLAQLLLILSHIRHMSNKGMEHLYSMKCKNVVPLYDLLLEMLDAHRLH
T1 sequence (P03372 305-550) 2: T1 sequence (P03372 305-550) 1
The test is described as follows: Estrogenicity score in COS-7 cells co-expressing pSimer-R2 and pSimer-G6.

For test [2], the target named is T2, ER LBD (Homo sapiens, UniProt P03372).
T2 sequence (P03372 305-550): T1 sequence (P03372 305-550) 1

For test [3], the target named is T2, ER LBD. The source holds these as a separate data set.
Test [4] addresses T2, ER LBD. The test is described as follows: Ligand sensitivity of various cell lines carrying pSimer-R2 (red luminescence). As to conditions: pSimer-R2 in HeLa, COS-7, NIH 3T3 and MCF-7 cells; 20 minutes stimulation; each cell line.
Test [5] has as its target T2, ER LBD. The source holds these as a separate data set.
Test [6] deals with T1, ER LBD. Kind of test: Estrogenicity score in COS-7 cells cotransfected with pSimer-R2 and pSimer-G4. Type of test: cell-based. More on the design: cDNAs of ER LBD (305-550 AA) and phosphorylation-recognition domain of Src (SH2) were amplified by PCR; expressed in transfected cells; host or cells: COS-7. The protocol:
A COS-7 cells carrying both pSimer-R2 and pSimer-G4 were simulated with ligands for 20 minutes, and spectrum of luminescence emitted as a result with all wavelengths was observed (FIG. 11). […] The term genomic signal used herein refers to an intracellular signal involved in conventional protein expression in the nucleus. On the other hand, the term non-genomic signal means an intracellular signal not accompanying conventional protein expression. Typically, this is the general classification of intracellular signal transductions.
Further, from ratio of luminescence intensities between red signal (610 nm) and green signal (540 nm) induced by a ligand, it is possible to show numerically whether the measured ligand tends to genomic activity (also referred to as agonistic activity herein) or nongenomic activity (also referred to as antagonistic activity herein).

A further test deals with COS-7 cells. Kind of test: Optimal LXXLL motif: ligand sensitivity of COS-7 cells carrying pSimer-G plasmids. It counts as cell-based, African Green Monkey. As to conditions: E2 or OHT for 20 minutes, compared among six pSimer-G plasmids. The method, then: As shown in the above (Table 1), six kinds of LXXLL motifs as those can be applied to each of […] backbones were prepared, and introduced into […]. Ligand sensitivity of COS-7 cells carrying either one of the six kinds of plasmids was measured (FIG. 8). […] Next, spectrum from the cells carrying […]6 with all wavelengths was measured, provided ligand was present and absent (FIG. 9).

[7] abbreviates: [variation of luminescence intensity at 540 nm]/[variation at 610 nm], COS-7 cells, pSimer-R2 + pSimer-G6, 20 minutes stimulation.
Where [8] appears, read: [variation of luminescence intensity at 540 nm]/[variation at 610 nm], COS-7 cells, pSimer-R2 + pSimer-G4, 20 minutes stimulation.

With 4-hydroxytamoxifen [OHT], the Estrogenicity score at ER LBD [1] was 0.38; on ER LBD [6] it was 0.62. Further, the “concentration at which luminescence intensity peaked” value on ER LBD [2] and on ER LBD [3] was “about 10^−5 M” each time. The “increase in luminescence intensity” value at ER LBD [4] is listed as “remarkable luminescence intensity”. Also, at ER LBD [5], the “time of peak luminescence intensity after stimulation” value came to 15 min.

With `C[C@]12CC[C@@H]3c4ccc(O)cc4C[C@@H](CCCCCCCCC[S+]([O-])CCCC(F)(F)C(F)(F)F)[C@H]3[C@@H]1CC[C@@H]2O` (stereo partly shown) [ICI, ICI182780], the Estrogenicity score on ER LBD [1] (setting [7]) was found to be 1.08; at ER LBD [6] (setting [8]), 0.86. At ER LBD [4], the “increase in luminescence intensity” value is on record as “remarkable luminescence intensity”.

For `C[C@]12CC[C@H]3[C@@H](CCC4=CC(=O)CC[C@@]43C)[C@@H]1CC[C@@H]2O` [T, testosterone], the Estrogenicity score on ER LBD [1] (setting [7]) and at ER LBD [6] (setting [8]) was 1.07 throughout.

As to `CC(=O)[C@H]1CC[C@H]2[C@@H]3CCC4=CC(=O)CC[C@]4(C)[C@H]3CC[C@]12C` [progesterone], the Estrogenicity score on ER LBD [1] (setting [7]) came out at 1.06.

Turning to “pSimer-G6: green luminescent probe, Rip140 motif 946 VCNESLLLQKLVNFS 932 (also: within green luminescent probe)”, the “luminescence intensity ratio relative to control (S/N ratio)” value in the test with COS-7 cells is on record as “strongest luminescence intensity ratio relative to control”.
